Laboratory results as given in patent US8637470B2, “Small humanin-like peptides” (The Regents of the University of California, priority 2008, dated 2014).
Entries after “also recorded” stand apart in the source; their conditions may differ.

Assays:
[1] = test system: ERK; assay: ERK activation in 22RV1 cells (immunoblotting, ELISA); format: cell-based, human; conditions: 22RV1, 100 nM; for ERK activation profile (immunoblotting): 15 min to 24 h
Experimental: Characterization of the intracellular signaling pathways activated by SHLPs. To determine a mechanism for the growth and apoptosis effects of SHLPs, SHLPs were tested for the ability to modulate activation of intracellular signaling pathways. 22RV1 cells in SF media were treated with 100 nM SHLP 1-5 and whole cell extracts were harvested after 15 min, 30 min, 2 h, 4 h, 8 h and 24 h. Proteins were separated by SDS-PAGE and analyzed by immunoblotting.
To test the hypothesis that SHLPs may act in concert to regulate intracellular signaling, 22RV1 cells were co-treated with SHLPs 2 and 3, and ERK activation was assessed.
Since HN causes activation of STAT3, SHLPs 2 and 3 were also tested for effects on STAT3. […] To more accurately quantify the ERK phosphorylation caused by SHLPs 2 and 3, we repeated the experiment as described above but used a commercially available ERK ELISA to assess ERK phosphorylation. Optimal ERK activation by SHLP2 was 9-fold after 24 h, whilst optimal activation by SHLP3 was 12-fold after 2 h (FIG. 5).

[2] = test system: Mouse NIT-1 insulinoma β-cells; assay: Cell proliferation (cell number by MTT/MTS cleavage) in NIT-1 cells; format: cell-based; conditions: NIT-1, 100 nM peptide, 72 h
Experimental: (§1) SHLPs exert distinct effects on cell proliferation. Whether SHLPs have the capacity to influence cell proliferation, in addition to their intrinsic effects on apoptosis induction, was also investigated. Mouse NIT-1 insulinoma β-cells and 22RV1 human prostate cancer cells were serum starved for 24 h, followed by 72 h incubation with 100 nM scrambled control peptide, HN or SHLPs. Cell number, as a measure of cell proliferation, was assessed by cleavage of MTT substrate.

[3] = test system: 22RV1 human prostate cancer cells; assay: Cell proliferation (cell number by MTT/MTS cleavage) in 22RV1 cells; format: cell-based; conditions: 22RV1, 100 nM peptide, 72 h
Experimental: as §1
Pro-apoptotic effect on human prostate cancer cells in vitro. To assess the ability of SHLP6 to induce apoptosis in human prostate cancer cells, PC-3, 22RV1 or DU145 cells were incubated in serum free (SF) media for 24 h followed by 24 h incubation with 1 μM scrambled (control) peptide or SHLP6. Apoptosis was assessed by ELISA for fragmentation of histone-associated DNA. In each cell line tested, SHLP6 induced apoptosis by at least 2-fold (FIG. 2), confirming highly significant physiological effects of this novel peptide. To determine whether the effects of SHLP6 were specific to induction of apoptosis, or if it also elicited growth-inhibitory effects, PC-3, DU-145, 22RV1, LAPC4 and LNCaP cells were incubated in SF media for 24 h followed by 72 h incubation with 1 μM SHLP6. Cell number, as a measure of cell proliferation, was assessed by cleavage of MTS substrate.

[4] = test system: Mouse primary cortical neurons; assay: Protection of primary cortical neurons from Aβ-induced cell death (Calcein-AM); format: cell-based; conditions: 25 μM Aβ1-43, 100 nM peptide, 72 h
Experimental: SHLPs protect neurons from Aβ-induced apoptosis. When it was first discovered, HN was described as a potent neural survival factor with clinical implications as a therapeutic agent against neurodegenerative diseases such as Alzheimer's Disease. Since many of the SHLPs appear to be functionally related to HN, SHLPs were tested as potential neuroprotective factors. Mouse primary cortical neurons were incubated with 25 μM Aβ1-43 in the presence or absence of 100 nM SHLP2 or 3, HNG (positive control) or 1 nM colivelin (positive control). After 72 h, neuronal viability was assessed by Calcein-AM staining followed by fluorescence microscopy (FIG. 13).

[5] = test system: S. cerevisiae; assay: Yeast heat shock survival; format: cell-based; conditions: 10 μM peptide, 90° heat shock
Experimental: SHLPs enhance stress resistance in yeast. The ability of SHLPs to enhance stress resistance in yeast was tested. The ability of yeast to survive heat shock after being treated with different peptides is a commonly used method to test the ability of peptides to enhance yeast survival.

[6] = test system: murine 3T3-L1 fibroblasts; assay: 3T3-L1 adipocyte differentiation (oil red-O staining); format: cell-based; conditions: 100 nM peptide with 10 nM insulin, 7 days
Experimental: SHLPs 2 and 3 Stimulate Adipocyte Differentiation of 3T3-L1 Cells in vitro. […] We next assessed the ability of SHLP2, 3 and 6 to modulate the differentiation of 3T3-L1 adipocytes. Differentiation was induced in murine 3T3-L1 fibroblasts by incubation in 1 μM dexamethasone, 100 nM insulin, and 500 μM lisobutylmethyxanthine for 2 days, followed by incubation with 10 nM insulin in the presence of 100 nM scrambled peptide (control), SHLP2, SHLP3 or SHLP6 for 7 days. Differentiation was assessed by oil red-0 staining as a measure of oil droplet formation.

[7] = test system: STAT3; assay: STAT3 phosphorylation in NIT-1 cells (immunoblotting); format: cell-based, mouse; conditions: NIT-1, 100 nM
Experimental: (§2) In addition to 22RV1, the effects of SHLPs on ERK and STAT3 phosphorylation were also studied in NIT-1 pancreatic β-cells. […] Indeed, the activation profile caused by SHLP3 in NIT-1 is remarkably similar to that stimulated by SHLP2 in 22RV1. When ERK activation was quantified by ELISA, a 6-fold and 9-fold activation was observed after 2 and 24 h, respectively, by SHLP2.

[8] = test system: ERK; assay: ERK phosphorylation in NIT-1 cells (immunoblotting, ELISA); format: cell-based, mouse; conditions: NIT-1, 100 nM
Experimental: as §2

Question: How did the “ERK activation profile (immunoblotting)” value [1] turn out when “MGVKFFTLSTRFFPSVQRAVPLWTNS [SHLP2, small humanin-like peptide, mtDNA 2092-2170]” was run?
Answer: delayed but sustained activation after 8 h

Question: And the “Optimal ERK activation (ELISA)” value ([1]; after 24 h)?
Answer: 9 fold

Question: And the “Cell number as a measure of cell proliferation” value (“Cell number as a measure” below) [2]?
Answer: much greater effect

Question: What about the “Cell number as a measure” value [3] of the same sequence?
Answer: much greater effect

Question: What about the “Neuronal viability against Aβ-induced cell death” value [4] of the same sequence?
Answer: protect the neurons from the cell death; also recorded: function as neuro-protective factors

Question: And the “Yeast survival of heat shock” value [5]?
Answer: allowed the yeast to withstand 90° heat shock; also recorded: enhance yeast survival against heat shock

Question: And the “Adipocyte differentiation (oil red-O staining)” value [6]?
Answer: strikingly induced adipocyte differentiation; also recorded: stimulate 3T3-L1 adipocyte differentiation

Question: What about the “STAT3 activation/phosphorylation (immunoblotting)” value [7] of the same sequence?
Answer: temporally similar to the timing of ERK activation

Question: And the “ERK phosphorylation profile (immunoblotting)” value [8]?
Answer: detected within 30 min

Question: What about the “ERK activation (ELISA)” value ([8]; after 2 h) of the same sequence?
Answer: 6 fold

Question: And the “ERK activation (ELISA)” value ([8]; after 24 h)?
Answer: 9 fold

Question: For “MLGYNFSSFPCGTISIAPGFNFYRLYFIWVNGLAKVVW [SHLP3, small humanin-like peptide, mtDNA 1707-1821]”, which “Time to ERK activation” value [1] is on record?
Answer: ≤ 2 min

Question: What about the “ERK activation profile (immunoblotting)” value [1] of the same sequence?
Answer: activated ERK rapidly

Question: And the “Optimal ERK activation (ELISA)” value ([1]; after 2 h)?
Answer: 12 fold

Question: And the “Cell number as a measure” value [2]?
Answer: much greater effect

Question: What about the “Cell number as a measure” value [3] of the same sequence?
Answer: much greater effect

Question: What about the “Neuronal viability against Aβ-induced cell death” value [4] of the same sequence?
Answer: protect the neurons from the cell death; also recorded: function as neuro-protective factors

Question: What about the “Yeast survival of heat shock” value [5] of the same sequence?
Answer: allowed the yeast to withstand 90° heat shock; also recorded: enhance yeast survival against heat shock

Question: What about the “Adipocyte differentiation (oil red-O staining)” value [6] of the same sequence?
Answer: strikingly induced adipocyte differentiation; also recorded: stimulate 3T3-L1 adipocyte differentiation

Question: What about the “STAT3 activation/phosphorylation (immunoblotting)” value [7] of the same sequence?
Answer: only slightly stimulate

Question: What about the “ERK phosphorylation profile (immunoblotting)” value [8] of the same sequence?
Answer: more delayed response

Question: And the “ERK activation (ELISA)” value ([8]; after 2 h)?
Answer: no detectable increase

Question: What about the “ERK activation (ELISA)” value ([8]; after 24 h) of the same sequence?
Answer: 15 fold
